Experiment: solvent given as SMILES

c1ccc2c(c1)-c1cccc3cccc-2c13
Settings	solvation free energy, 298 K [kJ/mol]
in C1COCCO1	-54.6
in CC(=O)N(C)C	-55.4
in CC(C)CC(C)(C)C	-46.9
in CC(C)CC(C)O	-47
in CC(C)CCO	-47.1
in CC(C)CO	-46.2
in CC(C)O	-46.6
in CCC(C)(C)O	-47.5
in CCC(C)O	-47.1
in CCCC(C)CO	-47.6
in CCCC(C)O	-47.6
in CCCCC(CC)CO	-48.1
in CCCCCC	-48
in CCCCCCC	-48.4
in CCCCCCCC	-48.6
in CCCCCCCCC=CCCCCCCCC(=O)OCC(COC(=O)CCCCCCCC=CCCCCCCCC)OC(=O)CCCCCCCC=CCCCCCCCC	-51.1
in CCCCCCCCCC	-48.9
in CCCCCCCCO	-49.2
in CCCCCCCO	-49.8
in CCCCCCO	-48.9
in CCCCCO	-48.5
in CCCCCl	-53.6
in CCCCO	-47.9
in CCCCOC(C)=O	-52.9
in CCCCOCCCC	-50.5
in CCCO	-47.5
in CCO	-47.6
in CCOC(C)=O	-53
in CCOCC	-51.9
in CN(C)C=O	-55.1
in CO	-46.7
in COC(C)(C)C	-51.1
in ClC(Cl)(Cl)Cl	-52.9
in ClC(Cl)Cl	-54.6
in ClCCCl	-54.4
in O	-19.6

CCCCCCN
Settings	solvation free energy, 298 K [kJ/mol]
in CCCCCCC	-23.1
in O	-16.7

O=NN1CCOCC1
Settings	solvation free energy, 298 K [kJ/mol]
in O	-32.6

OCCCO
Settings	solvation free energy, 298 K [kJ/mol]
in O	-41.7

CCC(C)C
Settings	solvation free energy, 298 K [kJ/mol]
in C1=Cc2ccccc2C1	-10.6
in C=CCCCCCCCCCCCCCC	-11.1
in CC#N	-7.95
in CC(=O)N(C)C	-8.28
in CC(C)(C)O	-10.7
in CCCCCCCCCCCCCCCC	-11.5
in CCCCCCCCCOC(=O)c1ccccc1C(=O)OCCCCCCCCC	-9.87
in CCNC(C)=O	-9.29
in CN1CCCC1=O	-7.53
in CN1CCCCC1=O	-8.41
in CN(C)C=O	-7.95
in CN(C)P(=O)(N(C)C)N(C)C	-8.37
in CNC(C)=O	-8.49
in CNC=O	-6.57
in ClC(Cl)C(Cl)Cl	-9.96
in Clc1cccc2ccccc12	-9.37
in Ic1ccccc1	-9.92
in N#CCCCCC#N	-4.44
in N#CCc1ccccc1	-7.45
in N#Cc1ccccc1	-9.25
in O	10
in O=C1CCCCC1	-10.8

CC(=O)CCCC(C)C
Settings	solvation free energy, 298 K [kJ/mol]
in NC=O	-19.9
in O	-12.6

CCCCCCCCC=O
Settings	solvation free energy, 298 K [kJ/mol]
in NC=O	-18.3
in O	-8.7

FC(F)(F)c1cccc(C(F)(F)F)c1
Settings	solvation free energy, 298 K [kJ/mol]
in O	4.48

CCCCOCC(C)O (centres undefined)
Settings	solvation free energy, 298 K [kJ/mol]
in O	-24

Cc1cccs1
Settings	solvation free energy, 298 K [kJ/mol]
in O	-5.77

CC(C)C(C)(C)C
Settings	solvation free energy, 298 K [kJ/mol]
in C=CCCCCCCCCCCCCCC	-15.8
in CN1CCCC1=O	-11.6
in O	11

CCC(CC)CO
Settings	solvation free energy, 298 K [kJ/mol]
in O	-15.6

COCCO
Settings	solvation free energy, 298 K [kJ/mol]
in C1CCOC1	-22.8
in COC(C)=O	-22.8
in O	-28.3

CCCC1CCCC1
Settings	solvation free energy, 298 K [kJ/mol]
in O	8.91

C=C(C)C1CCC(C)C2=C(C1)C(C)CC2 (centres undefined)
Settings	solvation free energy, 298 K [kJ/mol]
in O	-0.0418

O=C(O)c1ccc(CCl)cc1
Settings	solvation free energy, 298 K [kJ/mol]
in C=CCCCCCCCCCCCCCC	-36.4
in O	-38.6

COC(=O)c1ccc(OC)cc1
Settings	solvation free energy, 298 K [kJ/mol]
in O	-22.3

Cc1cc(C)c2ccccc2c1
Settings	solvation free energy, 298 K [kJ/mol]
in O	-10.3

Cc1ccc(C(=O)O)cc1
Settings	solvation free energy, 298 K [kJ/mol]
in C=CCCCCCCCCCCCCCC	-29.1
in CCCCCCCCO	-42.8
in O	-30.8

O=C(O)c1ccccc1[N+](=O)[O-]
Settings	solvation free energy, 298 K [kJ/mol]
in CCCCCCCCO	-52.2

ClCc1ccccc1
Settings	solvation free energy, 298 K [kJ/mol]
in C1COCCO1	-30.3
in CC(C)(C)O	-25.4
in CC(C)O	-25.1
in CCCCO	-25.4
in CCCO	-25.4
in CCO	-26
in CO	-26.7
in O	-7.87

COc1cc(Cc2cnc(N)nc2N)cc(OC)c1OC
Settings	solvation free energy, 298 K [kJ/mol]
in C1CCOC1	-83.4
in CC(C)O	-80.5
in CCC(C)O	-81.3
in CCCCO	-81.5
in CCCO	-82.8
in CCO	-83
in CO	-86.1

C#CCCCCCCC
Settings	solvation free energy, 298 K [kJ/mol]
in O	3.1

Clc1ccc(-c2ccc(Cl)c(Cl)c2)cc1Cl
Settings	solvation free energy, 298 K [kJ/mol]
in O	-15.1

CC1=CCC2(C(C)C)CC12 (centres undefined)
Settings	solvation free energy, 298 K [kJ/mol]
in O	2.09

C1CCCCC1
Settings	solvation free energy, 298 K [kJ/mol]
in BrC(Br)C(Br)Br	-14.3
in Brc1cccc2ccccc12	-15.3
in Brc1ccccc1	-17
in C1=Cc2ccccc2C1	-16.4
in C1CCC(C2CCCCC2)CC1	-17.1
in C1CCNC1	-16.9
in C1CCNCC1	-18.1
in C1CCOC1	-17.7
in C1COCCO1	-15.3
in C=CCCCC	-17.7
in C=CCCCCCC	-17.5
in C=CCCCCCCCC	-17.2
in C=CCCCCCCCCCCCCCC	-16.3
in CC1CCS(=O)(=O)C1	-11.4
in CC1COC(=O)O1	-11.1
in CC#N	-12.7
in CC(=O)CC(C)C	-16.4
in CC(=O)O	-13.5
in CC(=O)OCc1ccccc1	-14.8
in CC(=O)c1ccccc1	-14.7
in CC(C)(C)O	-15.4
in CC(C)=O	-15
in CC(C)CC(C)(C)C	-17.4
in CC(C)CCCC(C)CCCC(C)CCCCC(C)CCCC(C)CCCC(C)C	-16.2
in CC(C)CCO	-15.8
in CC(C)CO	-16.4
in CC(C)O	-14.7
in CC(C)OC(C)C	-17.5
in CCBr	-18
in CCC#N	-14.9
in CCC(C)(C)OC	-18
in CCC(C)=O	-15.9
in CCC(C)O	-15.2
in CCCC#N	-14.4
in CCCC(=O)OCC	-16.4
in CCCC(C)=O	-16
in CCCCC	-17.8
in CCCCC#N	-15
in CCCCC(CC)COC(=O)CCCCC(=O)OCC(CC)CCCC	-15.8
in CCCCC(CC)COC(=O)c1ccccc1C(=O)OCC(CC)CCCC	-15.1
in CCCCCC	-17.7
in CCCCCC#N	-15.3
in CCCCCC(C)=O	-16.2
in CCCCCCC	-17.6
in CCCCCCCC	-17.5
in CCCCCCCCC	-17.3
in CCCCCCCCC=CCCCCCCCC(=O)OCC(COC(=O)CCCCCCCC=CCCCCCCCC)OC(=O)CCCCCCCC=CCCCCCCCC	-16.2
in CCCCCCCCCC	-17.2
in CCCCCCCCCCCC	-16.9
in CCCCCCCCCCCCCC	-16.4
in CCCCCCCCCCCCCCCC	-16.6
in CCCCCCCCCCCCO	-15.5
in CCCCCCCCCCO	-14.3
in CCCCCCCCN(CCCCCCCC)CCCCCCCC	-16.2
in CCCCCCCCO	-15.6
in CCCCCCCO	-15.6
in CCCCCCO	-15.7
in CCCCCCOC(C)=O	-16.4
in CCCCCN(CCCCC)CCCCC	-16.8
in CCCCCO	-15.5
in CCCCCl	-17.4
in CCCCN(C=O)CCCC	-15.4
in CCCCN(CCCC)CCCC	-16.4
in CCCCO	-15.5
in CCCCOC	-17.6
in CCCCOC(=O)c1ccccc1C(=O)OCCCC	-15.6
in CCCCOC(C)=O	-16.4
in CCCCOCC	-17
in CCCCOCCCC	-17.3
in CCCO	-15
in CCCOCCC	-17.2
in CCN1CCCC1=O	-14.2
in CCN(CC)C(C)=O	-14.9
in CCN(CC)CC	-17.7
in CCNC(C)=O	-14.3
in CCNC=O	-13.5
in CCO	-14.6
in CCOC(=O)c1ccccc1C(=O)OCC	-13.6
in CCOC(C)(C)C	-17.4
in CCOC(C)=O	-15.8
in CCOCC	-17.5
in CCOCCO	-14.3
in CCOCCOCCOCC	-15.9
in CCOc1ccccc1	-16.3
in CN1CCCC1=O	-13.3
in CN1CCCCC1=O	-14.1
in CN1CCN(C)C1=O	-12.8
in CN(C)P(=O)(N(C)C)N(C)C	-14.5
in CNC(C)=O	-13.6
in CNC=O	-12.3
in CO	-13.6
in COC(C)(C)C	-17.4
in COC(C)=O	-15.1
in COCCO	-13.2
in COc1ccccc1	-16.1
in CS(C)=O	-10.5
in Cc1ccc(C)cc1	-17.4
in Cc1cccc2ccccc12	-15.9
in Cc1cccc(O)c1	-14.3
in Cc1ccccc1	-17.6
in Cc1ccccn1	-16.4
in ClC(Cl)(Cl)Cl	-18.6
in ClC(Cl)C(Cl)Cl	-15.7
in ClC(Cl)Cl	-18.1
in ClCCCl	-16.4
in ClCCl	-17.2
in Clc1cccc2ccccc12	-16.2
in Clc1ccccc1	-17.7
in FC(F)(F)C(F)(F)C(F)(F)C(F)(F)C(F)(F)C(F)(F)C(F)(F)C(F)(F)F	-11.1
in FC(F)(F)C(F)(F)C(F)(F)C(F)(F)C(F)(F)C(F)(F)F	-11.3
in Fc1ccccc1	-17.2
in ICI	-12.8
in N#CCCCC#N	-9.08
in N#CCCCCC#N	-10.5
in N#CCCOCCC#N	-9.37
in N#CCc1ccccc1	-13.2
in N#Cc1ccccc1	-14.8
in NC=O	-5.69
in NCCO	-7.07
in NCc1ccccc1	-14.5
in Nc1ccccc1	-12.8
in O	5.1
in O=C1CCCCC1	-16.1
in O=C1CCCO1	-11.8
in O=C(O)C(Cl)Cl	-13.8
in O=CN1CCOCC1	-11.1
in O=Cc1ccco1	-12.6
in OC1CCCCC1	-15.4
in OCCCCCO	-10.9
in OCCCCO	-10.6
in OCCCO	-9.16
in OCCO	-6.28
in OCCOCCO	-9.04
in OCCOCCOCCO	-9.46
in OCCOCCOCCOCCO	-9.79
in OCCS	-10.8
in OCCc1ccccc1	-13.9
in OCc1ccccc1	-13.5
in OCc1ccco1	-12.3
in S=C=S	-18.8
in c1ccc2c(c1)CCCC2	-17.2
in c1ccc2ncccc2c1	-15.1
in c1ccc(C2CCCCC2)cc1	-16.9
in c1ccccc1	-17.7
in c1ccncc1	-15.7
